Laboratory results: US7476649B2, “Antiproliferative and antiviral proteins and peptides” (priority 1998, dated 2009)
Converted amounts (≈) assume the structure as drawn. Like-named read-outs stand apart in the source and are kept apart here.

Tests used:
[1] = system: human embryonic lung cell line MRC-5
[2] = system: type 1 herpes (HSV-1), strain McKrae; type: cell-based, Herpes Simplex Type I
[3] = system: type 1 herpes (HSV-1), strain McKrae; type: cell-based, Herpes Simplex Type I; remark: listed apart in the source
in vitro [4] = details: African green monkey
in vitro [5] = details: African green monkey; remark: listed apart in the source
San Angelo (SAV) [6] = type: cell-based, San Angelo virus
in vitro [7] = details: African green monkey; remark: listed apart in the source
in vitro [8] = details: African green monkey; remark: listed apart in the source
San Angelo (SAV) [9] = test: microbe, parasite or virus in culture; type: cell-based, San Angelo virus
[10] = system: African green monkey cells (CV-1)
[11] = system: African green monkey cells (CV-1); remark: listed apart in the source

In the case of `Nc1nc2c(ncn2COCCO)c(=O)[nH]1` [Acyclovir, acyclovir], the CC50 [1] was over 100 µg/mL, the “COMMENT (activity)” value [2] was “Excellent activity” and the “COMMENT (activity)” value [3] was “Excellent activity”.
For `NC(=O)c1ncn([C@@H]2O[C@H](CO)[C@@H](O)[C@H]2O)n1` [Ribavirin, ribavirin], the CC50 (in vitro [4]) was over 100 µg/mL, the CC50 (in vitro [5]) was over 100 µg/mL and the “COMMENT (activity)” value (San Angelo (SAV) [6]) was “Very good activity”. For the same molecule, the CC50 (in vitro [7]) was over 100 µg/mL, the CC50 (in vitro [8]) was over 100 µg/mL and the “COMMENT (activity)” value (San Angelo (SAV) [9]) was “Very good activity”. For the same molecule, the EC50 (San Angelo (SAV) [9]; San Angelo virus, Vero) was 30 µg/mL (≈ 123 µM).
With `Nc1ccn(C[C@@H](CO)OCP(=O)(O)O)c(=O)n1` [HPMPC, cidofovir] the CC50 [10] was over 100 µg/mL and the CC50 [11] was over 100 µg/mL.
